For this test, the system named is HCV 1b-Con1 replicon. The test can be described thus: HCV 1b-Con1 replicon assay in the presence of 5% FBS. Type of test: cell-based. The conditions noted are these: Hepatitis C virus. (A replicon is a self-replicating genome or part of one, used to study replication in cells.)

From patent US20120220562A1, “Anti-Viral Compounds” (ABBOTT LABAORATORIES, priority 2011, published 2012) come the findings set out here.

The term EC50 denotes the midpoint of the concentration-response curve. Consider `COC(=O)N[C@H](C(=O)N1C[C@H](F)C[C@H]1c1nc2cc([C@H]3CC[C@H](c4ccc5[nH]c([C@@H]6C[C@@H](F)CN6C(=O)[C@@H](NC(=O)OC)C(C)C)nc5c4)N3c3cc(F)c(N4CCCCC4)c(F)c3)ccc2[nH]1)C(C)C` [Example 4.59, methyl {(2S)-1-[(2S,4R)-2-{5-[(2R,5R)-1-[3,5-difluoro-4-(piperidin-1-yl)phenyl]-5-{2-[(2S,4R)-4-fluoro-1-{(2S)-2-[(methoxycarbonyl)amino]-3-methylbutanoyl}pyrrolidin-2-yl]-1H-benzimidazol-5-yl}pyrrolidin-2-yl]-1H-benzimidazol-2-yl}-4-fluoropyrrolidin-1-yl]-3-methyl-1-oxobutan-2-yl}carbamate], for which the concentration for a half-maximal effect (EC50) was below 0.1 nM.
For `COC(=O)N[C@H](C(=O)N1CCC[C@H]1c1nc2cc([C@H]3CC[C@H](c4cc5nc([C@@H]6CCCN6C(=O)[C@@H](NC(=O)OC)C(C)C)[nH]c5cc4F)N3c3cc(F)c(N4CCN(c5ncccn5)CC4)c(F)c3)c(F)cc2[nH]1)C(C)C` [Example 4.60, methyl {(2S)-1-[(2S)-2-{5-[(2R,5R)-1-{3,5-difluoro-4-[4-(pyrimidin-2-yl)piperazin-1-yl]phenyl}-5-{6-fluoro-2-[(2S)-1-{(2S)-2-[(methoxycarbonyl)amino]-3-methylbutanoyl}pyrrolidin-2-yl]-1H-benzimidazol-5-yl}pyrrolidin-2-yl]-6-fluoro-1H-benzimidazol-2-yl}pyrrolidin-1-yl]-3-methyl-1-oxobutan-2-yl}carbamate] the value was below 0.1 nM; for `COC(=O)N[C@H](C(=O)N1CCC[C@H]1c1nc2cc([C@H]3CC[C@H](c4cc5nc([C@@H]6CCCN6C(=O)[C@@H](NC(=O)OC)C(C)C)[nH]c5cc4F)N3c3cc(F)c(N4CCC(c5ccc(C)s5)CC4)c(F)c3)c(F)cc2[nH]1)C(C)C` [Example 4.61, methyl {(2S)-1-[(2S)-2-{5-[(2R,5R)-1-{3,5-difluoro-4-[4-(5-methyl-2-thienyl)piperidin-1-yl]phenyl}-5-{6-fluoro-2-[(2S)-1-{(2S)-2-[(methoxycarbonyl)amino]-3-methylbutanoyl}pyrrolidin-2-yl]-1H-benzimidazol-5-yl}pyrrolidin-2-yl]-6-fluoro-1H-benzimidazol-2-yl}pyrrolidin-1-yl]-3-methyl-1-oxobutan-2-yl}carbamate], below 0.1 nM.
`COC(=O)N[C@H](C(=O)N1CCC[C@H]1c1nc2cc([C@H]3CC[C@H](c4cc5nc([C@@H]6CCCN6C(=O)[C@@H](NC(=O)OC)C(C)C)[nH]c5cc4F)N3c3cc(F)c(N4CCC(F)(c5ccccc5)CC4)c(F)c3)c(F)cc2[nH]1)C(C)C` [Example 4.62, methyl {(2S)-1-[(2S)-2-{5-[(2R,5R)-1-[3,5-difluoro-4-(4-fluoro-4-phenylpiperidin-1-yl)phenyl]-5-{6-fluoro-2-[(2S)-1-{(2S)-2-[(methoxycarbonyl)amino]-3-methylbutanoyl}pyrrolidin-2-yl]-1H-benzimidazol-5-yl}pyrrolidin-2-yl]-6-fluoro-1H-benzimidazol-2-yl}pyrrolidin-1-yl]-3-methyl-1-oxobutan-2-yl}carbamate]: the EC50 was below 0.1 nM.
`COC(=O)N[C@H](C(=O)N1CCC[C@H]1c1nc2cc([C@H]3CC[C@H](c4ccc5[nH]c([C@@H]6CCCN6C(=O)[C@@H](NC(=O)OC)C(C)C)nc5c4)N3c3cc(F)c(N4CCC(c5ccccc5)(c5ccccc5)CC4)c(F)c3)ccc2[nH]1)C(C)C` [Example 5.2, methyl {(2S)-1-[(2S)-2-{5-[(2R,5R)-1-[4-(4,4-diphenylpiperidin-1-yl)-3,5-difluorophenyl]-5-{2-[(2S)-1-{(2S)-2-[(methoxycarbonyl)amino]-3-methylbutanoyl}pyrrolidin-2-yl]-1H-benzimidazol-5-yl}pyrrolidin-2-yl]-1H-benzimidazol-2-yl}pyrrolidin-1-yl]-3-methyl-1-oxobutan-2-yl}carbamate]: the EC50 is below 0.1 nM.
For `COC(=O)N[C@H](C(=O)N1CCC[C@H]1c1nc2cc([C@H]3CC[C@H](c4ccc5[nH]c([C@@H]6CCCN6C(=O)[C@@H](NC(=O)OC)[C@@H](C)OC)nc5c4)N3c3cc(F)c(N4CCC(c5ccccc5)CC4)c(F)c3)ccc2[nH]1)[C@@H](C)OC` [Example 5.3, methyl {(2S,3R)-1-[(2S)-2-{5-[(2R,5R)-1-[3,5-difluoro-4-(4-phenylpiperidin-1-yl)phenyl]-5-(2-{(2S)-1-[N-(methoxycarbonyl)-O-methyl-L-threonyl]pyrrolidin-2-yl}-1H-benzimidazol-5-yl)pyrrolidin-2-yl]-1H-benzimidazol-2-yl}pyrrolidin-1-yl]-3-methoxy-1-oxobutan-2-yl}carbamate] the value was below 0.1 nM; for `COC(=O)N[C@H](C(=O)N1CCC[C@H]1c1nc2cc([C@H]3CC[C@H](c4ccc5[nH]c([C@@H]6CCCN6C(=O)[C@@H](NC(=O)OC)C(C)(C)C)nc5c4)N3c3cc(F)c(N4CCC(c5ccccc5)CC4)c(F)c3)ccc2[nH]1)C(C)(C)C` [Example 5.4, methyl {(2S)-1-[(2S)-2-{5-[(2R,5R)-1-[3,5-difluoro-4-(4-phenylpiperidin-1-yl)phenyl]-5-{2-[(2S)-1-{(2S)-2-[(methoxycarbonyl)amino]-3,3-dimethylbutanoyl}pyrrolidin-2-yl]-1H-benzimidazol-5-yl}pyrrolidin-2-yl]-1H-benzimidazol-2-yl}pyrrolidin-1-yl]-3,3-dimethyl-1-oxobutan-2-yl}carbamate], below 0.1 nM; for `COC(=O)N[C@H](C(=O)N1C[C@H](OC)C[C@H]1c1nc2cc([C@H]3CC[C@H](c4ccc5[nH]c([C@@H]6C[C@@H](OC)CN6C(=O)[C@@H](NC(=O)OC)C(C)C)nc5c4)N3c3cc(F)c(N4CCCCC4)c(F)c3)ccc2[nH]1)C(C)C` [Example 5.5, methyl {(2S)-1-[(2S,4R)-2-{5-[(2R,5R)-1-[3,5-difluoro-4-(piperidin-1-yl)phenyl]-5-{2-[(2S,4R)-4-methoxy-1-{(2S)-2-[(methoxycarbonyl)amino]-3-methylbutanoyl}pyrrolidin-2-yl]-1H-benzimidazol-5-yl}pyrrolidin-2-yl]-1H-benzimidazol-2-yl}-4-methoxypyrrolidin-1-yl]-3-methyl-1-oxobutan-2-yl}carbamate], below 0.1 nM.
For `COC(=O)N[C@H](C(=O)N1CCC[C@H]1c1nc2cc([C@H]3CC[C@H](c4ccc5[nH]c([C@@H]6CCCN6C(=O)[C@@H](NC(=O)OC)C6CCCCC6)nc5c4)N3c3cc(F)c(N4CCCCC4)c(F)c3)ccc2[nH]1)C1CCCCC1` [Example 5.6, dimethyl ({(2R,5R)-1-[3,5-difluoro-4-(piperidin-1-yl)phenyl]pyrrolidine-2,5-diyl}bis{1H-benzimidazole-5,2-diyl(2S)pyrrolidine-2,1-diyl [(1S)-1-cyclohexyl-2-oxoethane-2,1-diyl]})biscarbamate] the value was below 0.1 nM; for `COC(=O)N[C@H](C(=O)N1CCC[C@H]1c1nc2ccc([C@H]3CC[C@H](c4ccc5nc([C@@H]6CCCN6C(=O)[C@@H](NC(=O)OC)C(C)C)[nH]c5c4)N3c3cc(F)c(N4CC(C)CC(C)C4)c(F)c3)cc2[nH]1)C(C)C` (stereo partly drawn) [Example 5.7, methyl {(2S)-1-[(2S)-2-{6-[(2R,5R)-1-[4-(3,5-dimethylpiperidin-1-yl)-3,5-difluorophenyl]-5-{2-[(2S)-1-{(2S)-2-[(methoxycarbonyl)amino]-3-methylbutanoyl}pyrrolidin-2-yl]-1H-benzimidazol-6-yl}pyrrolidin-2-yl]-1H-benzimidazol-2-yl}pyrrolidin-1-yl]-3-methyl-1-oxobutan-2-yl}carbamate], below 0.1 nM; for `COC(=O)N[C@H](C(=O)N1CCC[C@H]1c1nc2cc([C@H]3CC[C@H](c4ccc5[nH]c([C@@H]6CCCN6C(=O)[C@@H](NC(=O)OC)C(C)C)nc5c4)N3c3cc(F)c(N4CCC(C(F)(F)F)CC4)c(F)c3)ccc2[nH]1)C(C)C` [Example 5.8, methyl {(2S)-1-[(2S)-2-{5-[(2R,5R)-1-{3,5-difluoro-4-[4-(trifluoromethyl)piperidin-1-yl]phenyl}-5-{2-[(2S)-1-{(2S)-2-[(methoxycarbonyl)amino]-3-methylbutanoyl}pyrrolidin-2-yl]-1H-benzimidazol-5-yl}pyrrolidin-2-yl]-1H-benzimidazol-2-yl}pyrrolidin-1-yl]-3-methyl-1-oxobutan-2-yl}carbamate], below 0.1 nM.
For `COC(=O)N[C@H](C(=O)N1CCC[C@H]1c1nc2cc([C@H]3CC[C@H](c4ccc5[nH]c([C@@H]6CCCN6C(=O)[C@@H](NC(=O)OC)C(C)C)nc5c4)N3c3cc(F)c(N4CCC(C(C)(C)C)CC4)c(F)c3)ccc2[nH]1)C(C)C` [Example 5.9, methyl {(2S)-1-[(2S)-2-{5-[(2R,5R)-1-[4-(4-tert-butylpiperidin-1-yl)-3,5-difluorophenyl]-5-{2-[(2S)-1-{(2S)-2-[(methoxycarbonyl)amino]-3-methylbutanoyl}pyrrolidin-2-yl]-1H-benzimidazol-5-yl}pyrrolidin-2-yl]-1H-benzimidazol-2-yl}pyrrolidin-1-yl]-3-methyl-1-oxobutan-2-yl}carbamate] the value was below 0.1 nM.
Consider `COC(=O)N[C@H](C(=O)N1CCC[C@H]1c1nc2cc([C@H]3CC[C@H](c4ccc5[nH]c([C@@H]6CCCN6C(=O)[C@@H](NC(=O)OC)C(C)C)nc5c4)N3c3cc(F)c(N4CCC(C)(C)CC4)c(F)c3)ccc2[nH]1)C(C)C` [Example 5.10, methyl {(2S)-1-[(2S)-2-{5-[(2R,5R)-1-[4-(4,4-dimethylpiperidin-1-yl)-3,5-difluorophenyl]-5-{2-[(2S)-1-{(2S)-2-[(methoxycarbonyl)amino]-3-methylbutanoyl}pyrrolidin-2-yl]-1H-benzimidazol-5-yl}pyrrolidin-2-yl]-1H-benzimidazol-2-yl}pyrrolidin-1-yl]-3-methyl-1-oxobutan-2-yl}carbamate], for which the concentration giving a half-maximal response (EC50) was below 0.1 nM.
On to `COC(=O)N[C@H](C(=O)N1CCC[C@H]1c1nc2cc([C@H]3CC[C@H](c4ccc5[nH]c([C@@H]6CCCN6C(=O)[C@@H](NC(=O)OC)C(C)C)nc5c4)N3c3cc(F)c(N4CCC5(CC4)CC5)c(F)c3)ccc2[nH]1)C(C)C` [Example 5.11, methyl {(2S)-1-[(2S)-2-{5-[(2R,5R)-1-[4-(6-azaspiro[2.5]oct-6-yl)-3,5-difluorophenyl]-5-{2-[(2S)-1-{(2S)-2-[(methoxycarbonyl)amino]-3-methylbutanoyl}pyrrolidin-2-yl]-1H-benzimidazol-5-yl}pyrrolidin-2-yl]-1H-benzimidazol-2-yl}pyrrolidin-1-yl]-3-methyl-1-oxobutan-2-yl}carbamate], for which the EC50 is below 0.1 nM.
